The values below come from patent publication US20220288048A1, “PIMAVANSERIN FOR TREATING SCHIZOPHRENIA OR FOR TREATING PSYCHOSIS SECONDARY TO NEURODEGENERATIVE DISORDERS OR DEPRESSIVE DISORDER” (ACADIA Pharmaceuticals Inc., priority 2019, published 2022).

“Also recorded” adds a separate entry of the source.

What all share (type): in vivo
For data set [1], the system named is scPCP+ARS(2h) treated male C57BL/6J mice. Put plainly: 10-min social interaction test in scPCP-treated mice given 2 h acute restraint stress (treatment-resistant model). The following applies: for Able to restore sniffing or decrease avoidance (SI deficit), drug alone: risperidone 0.2, olanzapine 1, aripiprazole 1 or pimavanserin 3 mg/kg ip alone, 45 min prior to test. As to the method: (§1) Briefly, mice were habituated to the test arena (i.e., the NOR box) for 30 minutes prior to the test day. Pairs of mice, unfamiliar to each other, received either the same treatment (e.g., vehicle and vehicle; N=10 pairs) or different treatments (e.g., vehicle; N=10 and phencyclidine (PCP) 10 mg/kg; N=10). After washout, they were placed in the test arena together for 10 minutes. A heavy object made of Plexiglas or metal was placed in the center of the test arena to quantify the time and nature of interaction of the test animals with an unfamiliar object or an unfamiliar animal. After the 10 min test phase, the object and the arena were cleaned with 70% ethanol to remove any olfactory trails. Behavior was recorded on video for subsequent blind scoring.
(§2) The following four behaviors were scored for each animal: • a) Sniffing: A normal mouse engages in sniffing the con-specific mouse's body, including the anogenital area • b) Following: A normal mouse pursues a con-specific mouse around the arena • c) Avoiding: A normal mouse avoids the con-specific mouse and move away from a pursuing mouse if approached • d) Object Exploration: A normal mouse explores the object that is placed in the center of the test arena.
Acute restraint stress (ARS) protocol: Mice were assigned to one of two groups: either the control group (non-stress) or the stress group. Generally, mice of the stress group were restrained in well-ventilated 50 mL tubes. After the restraint period of 1 or 2 hours, the mice were transferred into a clean animal housing cage for 1-hour interval and thereafter went through the first social interaction test (different mice are used to test different groups).
Treatment resistant animal model: To establish this model, Acute restraint stress (ARS) was added to scPCP treatment. Two groups (vehicle+ARS; scPCP+ARS) and their controls (vehicle+saline; scPCP+saline) were used. ARS was applied for 1 or 2 hours and tested on SI 1 hour post-ARS.
(§3) The behavioral assay, ARS protocol, and scPCP-treatment as described in Example 2 were used. To test the effect of atypical APD and pimavanserin, alone or as con-administration, in scPCP-treated mice (N=10 pairs of mice per group) given 2 h ARS, risperidone (“Risp”) was administered as 0.2 mg/kg or 0.4 mg/kg ip; olanzapine (“Olan”) as 1.0 mg/kg ip; aripiprazole (“Aripi”) as 1.0 mg/kg ip; and pimavanserin (“Pim”) as 3 mg/kg ip to scPCP+ARS(2h) treated male C57BL/6J mice 45 minutes prior to the commencement of the social interaction task in the 10 min social interaction test. Plasma levels of risperidone were measured using a Triple Quad 6500+ mass spectrometer.

Data set [2] deals with scPCP-treated C57BL/6J mice. Put plainly: 10-min social interaction test in scPCP-treated mice. The following applies: 45 min prior to test. The procedure: Negative symptoms model: The behavioral assay utilized to assess negative symptoms was social interaction (SI) task.
as §1, §2
scPCP treatment involved intraperitoneal injection (ip) of 10 mg/kg PCP to male C57BL/6J mice, twice daily (bid) for 7 days, followed by 7 days washout. To test the effect of atypical APD or pimavanserin in scPCP-treated mice (N=10 pairs of mice per group), risperidone was administered as 0.05 mg/kg ip or 0.2 mg/kg ip; and pimavanserin was administered as 3 mg/kg ip or 6 mg/kg ip to scPCP-treated mice 45 minutes prior to the commencement of the social interaction task in the 10 min social interaction test.

A short description of data set [3]: Plasma levels of risperidone in scPCP and ARS-treated mice (mass spectrometer). The procedure: as §3

For `O=C1CCc2ccc(OCCCCN3CCN(c4cccc(Cl)c4Cl)CC3)cc2N1` [aripiprazole], the “Able to restore sniffing or decrease avoidance (SI deficit), drug alone” value in data set [1] is “Neither”.

As for `Cc1nc2n(c(=O)c1CCN1CCC(c3noc4cc(F)ccc34)CC1)CCCC2` [risperidone], the “SI deficit produced by scPCP: time exploring the conspecific mouse” value in data set [2] (risperidone 0.05 mg/kg ip) is listed as “sub-effective”; in data set [2] (risperidone 0.2 mg/kg ip) it was “spent more time exploring the conspecific mouse”. Further, the “Plasma levels of risperidone” value in data set [3] (0.2 mg/kg risperidone group) came to 5.4±0.1; in data set [3] (0.2 mg/kg risperidone plus 3 mg/kg pimavanserin group), 5.3±0.6; in data set [3] (0.4 mg/kg risperidone group), 8.0±3.3. Further, the “Effect on SI deficit, doubled dose” value in data set [1] (risperidone 0.4 mg/kg ip) is “ineffective”. For the same compound, the “Able to restore sniffing or decrease avoidance (SI deficit), drug alone” value in data set [1] is “Neither; also recorded: ineffective”.
